Key:
MITF = MITF mRNA expression in NHMs; assay type: cell-based, human
[1] = system: normal human melanocytes (NHMs); assay: Melanin production (melanogenesis activity) in NHMs; assay type: cell-based; conditions: carvedilol 2-10 μM, 5 days (FIG. 1B)
Method: (§1) NHMs were treated with carvedilol at each concentration of 2 μM, 4 μM, 6 μM, 8 μM and 10 μM, cultured for 5 days, and then a cell growth rate, melanogenesis activity, tyrosinase activity, and the expression of a melanin synthesis-related protein were confirmed.

[2] = system: mouse melanocytes (mel-ab); assay: Melanin production in mouse melanocytes (mel-ab); assay type: cell-based; conditions: carvedilol by concentration (FIG. 2B)
Excerpt: (§2) In addition to the result of Example 1 showing whitening activity in NHMs, the melanin inhibitory effect was confirmed by treating mouse melanocytes (mel-ab) with carvedilol.

[3] = system: normal human melanocytes (NHMs); assay: Cell growth rate in normal human melanocytes treated with carvedilol; assay type: cell-based; conditions: cultured for 5 days (FIG. 1A)
Method: as §1

[4] = system: mouse melanocytes (mel-ab); assay: Cell growth rate in mouse melanocytes (mel-ab); assay type: cell-based; conditions: up to 8 μM carvedilol (FIG. 2A)
Excerpt: as §2

FSK-stimulated NHMs = assay: Melanin production in FSK-stimulated NHMs; assay type: cell-based, human; conditions: NHMs after FSK treatment (FIG. 3A)
[5] = system: cAMP/PKA/CREB signaling pathway; assay: Phospho-CREB and phospho-ERK expression in FSK-stimulated NHMs; assay type: cell-based, human; conditions: over time (FIG. 1D)
Method: After NHMs were stimulated with FSK and treated with carvedilol, the expression levels of phospho-CREB and phospho-ERK were measured, and an intracellular signaling pathway which regulates MITF transcription was investigated.

[6] = system: melanin synthesis-related protein; assay: Expression of melanin synthesis-related protein in NHMs; assay type: cell-based, human; conditions: according to carvedilol treatment time (FIG. 1D)
Excerpt: […], and then a cell growth rate, melanogenesis activity, tyrosinase activity, and the expression of a melanin synthesis-related protein were confirmed.

tyrosinase = assay: Tyrosinase activity in NHMs; assay type: cell-based, human; conditions: carvedilol 2-10 μM, 5 days (FIG. 1C)
Method: as §1

[7] = system: ex-vivo model of human skin tissue; assay: Ex-vivo human skin tissue model stimulated by UV irradiation
Excerpt: To examine adaptation in actual clinical practice, an ex-vivo model of human skin tissue was stimulated by UV irradiation to induce melanin synthesis, and treated with carvedilol and cultured, and then a fragment was formed and subjected to Fontana-Masson staining.

In the case of `C=C[C@@]1(C)CC(=O)[C@]2(O)[C@@]3(C)[C@@H](O)CCC(C)(C)[C@@H]3[C@H](O)[C@H](OC(C)=O)[C@@]2(C)O1` [FSK], the MITF transcription (MITF; 10 μM FSK for 2 hours (FIG. 3B)) is reported as “maximally increased”.

In the case of `COc1ccccc1OCCNCC(O)COc1cccc2[nH]c3ccccc3c12` (centres unmarked) [carvedilol], the melanin production [1] is reported as “inhibited”, the melanin production [2] is reported as “effect of inhibiting melanin production” and the cell growth rate ([3]; 10 μM carvedilol) is reported as “slightly reduced”. The cell growth rate ([3]; up to 8 μM carvedilol) was “no effect”, the cell growth rate [4] was “no effect” and the melanin production (FSK-stimulated NHMs) was “inhibits melanin production”. The phospho-CREB expression [5] was “reduced over time”, the phospho-ERK expression [5] was “no change” and the “mRNA level of MITF” value (MITF; two hours after carvedilol treatment (FIG. 3C)) was “maximally decreased”. The “expression of a melanin synthesis-related protein” value [6] was “tends to decrease over time”, the tyrosinase activity (tyrosinase) was “inhibited” and the “melanosome level (Fontana-Masson staining)” value ([7]; UV-irradiated ex-vivo human skin, carvedilol treated (FIG. 4A)) was “melanosome reduction”. For the same compound, the “melanin index (proportion of Fontana-Masson-stained region)” value ([7]; UV-irradiated ex-vivo human skin, carvedilol treated (FIG. 4B)) was “decrease”, the “melanin synthesis-related enzymes such as tyrosinase, TRP1 and DCT” value ([7]; UV-irradiated ex-vivo human skin, increased by UVR (FIG. 4C)) was “reduced” and the “number of Melan-A (+) cells (melanocytes)” value ([7]; ex-vivo human skin, compared to UVR alone (FIG. 4D)) was “does not affect”. The “HMB45(+) melanocytes indicating melanocyte activity” value ([7]; ex-vivo human skin, increased by UVR treatment (FIG. 4E)) was “reduced”.

Source: patent US20250186323A1, “COMPOSITION FOR SKIN WHITENING COMPRISING CARVEDILOL” (GMEX (GLOBAL MEDICAL XYNAPSE), priority 2020, published 2025)
